Results reported in ChEMBL document CHEMBL5316353, “Antitarget, Anti-SARS-CoV-2 Leads, Drugs, and the Drug Discovery-Genetics Alliance Perspective” (J Med Chem, 2023).

Tested on: SARS-CoV-2
Assay: Antiviral activity against SARS Cov-2 pseudovirions assessed as inhibition of viral entry into 293/hACE2 cells at 2 uM relative to control
Type: functional, Severe acute respiratory syndrome coronavirus 2, 293T/ACE2
Set-up: scale not given: the % may be the effect or the level left

## CCc1ccccc1NC(=O)CSC(=O)NNC(=O)[C@H](Cc1c[nH]c2ccccc12)NC(=O)OC(C)(C)C
  Activity: ~76%
